Among the data in the supplement of paper PMC10307832 are relative viability values, retold here.

Common to all, as to experiment: relative viability (nuclei count vs DMSO), 5 days (fraction); higher = more cells survive
Compound in the assay “Crenolanib + Bortezomib”: CC1(COc2ccc3c(c2)ncn3-c2ccc3cccc(N4CCC(N)CC4)c3n2)COC1 [Crenolanib] + CC(C)C[C@H](NC(=O)[C@H](Cc1ccccc1)NC(=O)c1cnccn1)B(O)O [Bortezomib] (partner 0.002 µM)
The gist of the method: (§1)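 After 5 days of treatment, lung cancer cells in 1536-well plates were fixed and stained in a single step (final 0.05% Triton X-100, 1% formaldehyde, 1 ug/ml Hoechst) and their nuclei counted on 4× images. Treatment had been applied by pin tool the day after seeding as one drug alone or as a fixed anchor-drug dose with five library-drug doses (not always all listed) in √10 steps. Relative viability is the nuclei count of treated wells divided by that of vehicle wells, and values are medians of duplicate plates.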

Compound in the assay “Crenolanib + Navitoclax”: CC1(COc2ccc3c(c2)ncn3-c2ccc3cccc(N4CCC(N)CC4)c3n2)COC1 [Crenolanib] + CC1(C)CCC(c2ccc(Cl)cc2)=C(CN2CCN(c3ccc(C(=O)NS(=O)(=O)c4ccc(N[C@H](CCN5CCOCC5)CSc5ccccc5)c(S(=O)(=O)C(F)(F)F)c4)cc3)CC2)C1 [Navitoclax] (partner 0.5 µM)
The gist of the method:
as §1

Compound in the assay “Crenolanib + Pemetrexed”: CC1(COc2ccc3c(c2)ncn3-c2ccc3cccc(N4CCC(N)CC4)c3n2)COC1 [Crenolanib] + Nc1nc2[nH]cc(CCc3ccc(C(=O)N[C@@H](CCC(=O)O)C(=O)O)cc3)c2c(=O)[nH]1 [Pemetrexed] (partner 0.2 µM)
The essentials: as §1

Compound in the assay “Tivantinib + Phenformin”: O=C1NC(=O)[C@@H](c2cn3c4c(cccc24)CCC3)[C@@H]1c1c[nH]c2ccccc12 [Tivantinib] + N=C(N)NC(=N)NCCc1ccccc1 [Phenformin] (partner 250 µM)
The essentials: as §1

For NCI-H2347, the relative viability is 1.16 in the assay with Crenolanib + Bortezomib (first compound 0.01 µM); 0.724 in the assay with Crenolanib + Bortezomib (first compound 0.03162 µM); 0.727 with Crenolanib + Bortezomib (first compound 0.3162 µM); 1.19 with Crenolanib + Bortezomib (first compound 1 µM); 0.835 with Crenolanib + Navitoclax (first compound 0.01 µM); 0.815 with Crenolanib + Navitoclax (first compound 0.03162 µM). For the same cell line, the relative viability with Crenolanib + Navitoclax (first compound 0.1 µM) was 0.478; with Crenolanib + Navitoclax (first compound 0.3162 µM), 0.885; with Crenolanib + Navitoclax (first compound 1 µM), 0.865; in the assay with Crenolanib + Pemetrexed (first compound 0.01 µM), 0.4; in the assay with Crenolanib + Pemetrexed (first compound 0.03162 µM), 0.425; in the assay with Crenolanib + Pemetrexed (first compound 0.1 µM), 0.397. The relative viability with Crenolanib + Pemetrexed (first compound 0.3162 µM) worked out at 0.447; in the assay with Crenolanib + Pemetrexed (first compound 1 µM), 0.436; with Tivantinib + Phenformin (first compound 0.01 µM) it was 0.514; in the assay with Tivantinib + Phenformin (first compound 0.03162 µM), 0.375; with Tivantinib + Phenformin (first compound 0.1 µM), 0.389; in the assay with Tivantinib + Phenformin (first compound 0.3162 µM), 0.377.
For the cell line NCI-H2405, the relative viability with Crenolanib + Bortezomib (first compound 0.01 µM) was 0.998; with Crenolanib + Bortezomib (first compound 0.03162 µM) it was 0.964; with Crenolanib + Bortezomib (first compound 0.1 µM), 0.921; in the assay with Crenolanib + Bortezomib (first compound 0.3162 µM) it was 1.05; with Crenolanib + Bortezomib (first compound 1 µM) it was 0.976; with Crenolanib + Navitoclax (first compound 0.01 µM), 1.34. The relative viability in the assay with Crenolanib + Navitoclax (first compound 0.03162 µM) is 0.917; with Crenolanib + Navitoclax (first compound 0.1 µM), 0.441; with Crenolanib + Navitoclax (first compound 0.3162 µM), 0.765; with Crenolanib + Navitoclax (first compound 1 µM), 0.806; with Crenolanib + Pemetrexed (first compound 0.01 µM), 1.11; in the assay with Crenolanib + Pemetrexed (first compound 0.1 µM), 0.869. In addition, the relative viability was 1.11 with Crenolanib + Pemetrexed (first compound 0.3162 µM); 1.06 with Crenolanib + Pemetrexed (first compound 1 µM); 0.437 in the assay with Tivantinib + Phenformin (first compound 0.01 µM); 0.38 with Tivantinib + Phenformin (first compound 0.03162 µM); 0.367 with Tivantinib + Phenformin (first compound 0.1 µM); 0.473 with Tivantinib + Phenformin (first compound 0.3162 µM).
Take NCI-H3122: the relative viability with Crenolanib + Bortezomib (first compound 0.01 µM) amounted to 1.08; with Crenolanib + Bortezomib (first compound 0.03162 µM) it was 1.01; in the assay with Crenolanib + Bortezomib (first compound 0.1 µM), 1.04; in the assay with Crenolanib + Bortezomib (first compound 0.3162 µM), 1.05; in the assay with Crenolanib + Bortezomib (first compound 1 µM) it was 1.16; with Crenolanib + Navitoclax (first compound 0.01 µM), 0.987. Further, the relative viability with Crenolanib + Navitoclax (first compound 0.03162 µM) is 1; with Crenolanib + Navitoclax (first compound 0.1 µM), 0.985; with Crenolanib + Navitoclax (first compound 0.3162 µM), 1.04; in the assay with Crenolanib + Navitoclax (first compound 1 µM) it was 1; with Crenolanib + Pemetrexed (first compound 0.01 µM) it was 0.205; in the assay with Crenolanib + Pemetrexed (first compound 0.03162 µM) it was 0.212. Also, the relative viability with Crenolanib + Pemetrexed (first compound 0.1 µM) was determined as 0.203; in the assay with Crenolanib + Pemetrexed (first compound 0.3162 µM) it was 0.203; with Crenolanib + Pemetrexed (first compound 1 µM) it was 0.18; in the assay with Tivantinib + Phenformin (first compound 0.01 µM) it was 0.369; with Tivantinib + Phenformin (first compound 0.03162 µM), 0.394; in the assay with Tivantinib + Phenformin (first compound 0.1 µM) it was 0.359. Besides, in the assay with Tivantinib + Phenformin (first compound 0.3162 µM), the relative viability came out at 0.361.
Consider PC-3 [JPC-3], for which the relative viability in the assay with Crenolanib + Bortezomib (first compound 0.01 µM) worked out at 0.814; in the assay with Crenolanib + Bortezomib (first compound 0.03162 µM), 0.889; with Crenolanib + Bortezomib (first compound 0.1 µM), 0.779; in the assay with Crenolanib + Bortezomib (first compound 0.3162 µM), 0.831; in the assay with Crenolanib + Bortezomib (first compound 1 µM), 0.749; in the assay with Crenolanib + Navitoclax (first compound 0.01 µM) it was 0.783. The relative viability with Crenolanib + Navitoclax (first compound 0.03162 µM) was found to be 0.788; with Crenolanib + Navitoclax (first compound 0.1 µM), 0.754; with Crenolanib + Navitoclax (first compound 0.3162 µM), 0.841; with Crenolanib + Navitoclax (first compound 1 µM), 0.869; with Crenolanib + Pemetrexed (first compound 0.01 µM), 1.11; in the assay with Crenolanib + Pemetrexed (first compound 0.1 µM), 1.01. Moreover, the relative viability worked out at 1.21 in the assay with Crenolanib + Pemetrexed (first compound 0.3162 µM); 0.889 in the assay with Crenolanib + Pemetrexed (first compound 1 µM); 0.459 in the assay with Tivantinib + Phenformin (first compound 0.01 µM); 0.494 in the assay with Tivantinib + Phenformin (first compound 0.03162 µM); 0.506 in the assay with Tivantinib + Phenformin (first compound 0.1 µM); 0.355 with Tivantinib + Phenformin (first compound 0.3162 µM).
Turning to PC-14, the relative viability with Crenolanib + Bortezomib (first compound 0.01 µM) is 0.908; in the assay with Crenolanib + Bortezomib (first compound 0.03162 µM) it was 0.809; in the assay with Crenolanib + Bortezomib (first compound 0.1 µM), 0.785; with Crenolanib + Bortezomib (first compound 0.3162 µM), 0.995; with Crenolanib + Bortezomib (first compound 1 µM), 0.948; with Crenolanib + Navitoclax (first compound 0.01 µM) it was 1.08. Also, the relative viability was 1.01 in the assay with Crenolanib + Navitoclax (first compound 0.03162 µM); 0.986 with Crenolanib + Navitoclax (first compound 0.1 µM); 1.11 with Crenolanib + Navitoclax (first compound 0.3162 µM); 0.988 with Crenolanib + Navitoclax (first compound 1 µM); 0.137 with Crenolanib + Pemetrexed (first compound 0.01 µM); 0.127 with Crenolanib + Pemetrexed (first compound 0.03162 µM). Further, the relative viability with Crenolanib + Pemetrexed (first compound 0.1 µM) stood at 0.16; in the assay with Crenolanib + Pemetrexed (first compound 0.3162 µM), 0.133; with Crenolanib + Pemetrexed (first compound 1 µM), 0.143; in the assay with Tivantinib + Phenformin (first compound 0.01 µM), 0.516; with Tivantinib + Phenformin (first compound 0.03162 µM) it was 0.454; in the assay with Tivantinib + Phenformin (first compound 0.1 µM) it was 0.611. In the assay with Tivantinib + Phenformin (first compound 0.3162 µM), the relative viability amounted to 0.341.
Consider RERF-LC-KJ, for which the relative viability worked out at 1.26 with Crenolanib + Bortezomib (first compound 0.01 µM); 1.15 with Crenolanib + Bortezomib (first compound 0.03162 µM); 1.11 in the assay with Crenolanib + Bortezomib (first compound 0.1 µM); 1.1 with Crenolanib + Bortezomib (first compound 0.3162 µM); 1.12 with Crenolanib + Bortezomib (first compound 1 µM); 0.962 with Crenolanib + Navitoclax (first compound 0.01 µM). Moreover, the relative viability with Crenolanib + Navitoclax (first compound 0.03162 µM) was 0.729; with Crenolanib + Navitoclax (first compound 0.1 µM) it was 1.04; with Crenolanib + Navitoclax (first compound 0.3162 µM) it was 1.33; in the assay with Crenolanib + Navitoclax (first compound 1 µM), 0.948; in the assay with Crenolanib + Pemetrexed (first compound 0.01 µM), 0.474; with Crenolanib + Pemetrexed (first compound 0.03162 µM), 0.516. Also, the relative viability was 0.457 in the assay with Crenolanib + Pemetrexed (first compound 0.1 µM); 0.479 with Crenolanib + Pemetrexed (first compound 0.3162 µM); 0.447 in the assay with Crenolanib + Pemetrexed (first compound 1 µM); 0.454 in the assay with Tivantinib + Phenformin (first compound 0.01 µM); 0.442 in the assay with Tivantinib + Phenformin (first compound 0.03162 µM); 0.407 in the assay with Tivantinib + Phenformin (first compound 0.1 µM). The relative viability with Tivantinib + Phenformin (first compound 0.3162 µM) is 0.335.
SK-LU-1: the relative viability was 1.42 in the assay with Crenolanib + Bortezomib (first compound 0.01 µM); 1.11 with Crenolanib + Bortezomib (first compound 0.03162 µM); 0.937 in the assay with Crenolanib + Bortezomib (first compound 0.1 µM); 1.33 with Crenolanib + Bortezomib (first compound 0.3162 µM); 1 with Crenolanib + Bortezomib (first compound 1 µM); 0.923 with Crenolanib + Navitoclax (first compound 0.01 µM). Also, the relative viability with Crenolanib + Navitoclax (first compound 0.03162 µM) worked out at 1.02; in the assay with Crenolanib + Navitoclax (first compound 0.1 µM), 0.472; with Crenolanib + Navitoclax (first compound 0.3162 µM), 1.05; with Crenolanib + Navitoclax (first compound 1 µM), 0.803; in the assay with Crenolanib + Pemetrexed (first compound 0.01 µM), 0.943; with Crenolanib + Pemetrexed (first compound 0.03162 µM), 1.03. Besides, the relative viability turned out to be 0.892 in the assay with Crenolanib + Pemetrexed (first compound 0.1 µM); 1.11 in the assay with Crenolanib + Pemetrexed (first compound 0.3162 µM); 0.966 in the assay with Crenolanib + Pemetrexed (first compound 1 µM); 0.536 in the assay with Tivantinib + Phenformin (first compound 0.01 µM); 0.539 in the assay with Tivantinib + Phenformin (first compound 0.03162 µM); 0.497 in the assay with Tivantinib + Phenformin (first compound 0.1 µM). Further, in the assay with Tivantinib + Phenformin (first compound 0.3162 µM), the relative viability is 0.601.
Turning to SW 1573, the relative viability with Crenolanib + Bortezomib (first compound 0.01 µM) was found to be 1.04; with Crenolanib + Bortezomib (first compound 0.03162 µM), 1.15; with Crenolanib + Bortezomib (first compound 0.1 µM), 0.996; with Crenolanib + Bortezomib (first compound 0.3162 µM), 1.29; with Crenolanib + Bortezomib (first compound 1 µM), 1.15; in the assay with Crenolanib + Navitoclax (first compound 0.01 µM), 1.11. For the same cell line, the relative viability was 1.17 with Crenolanib + Navitoclax (first compound 0.03162 µM); 0.867 with Crenolanib + Navitoclax (first compound 0.1 µM); 1.03 with Crenolanib + Navitoclax (first compound 0.3162 µM); 1.23 in the assay with Crenolanib + Navitoclax (first compound 1 µM); 0.784 with Crenolanib + Pemetrexed (first compound 0.01 µM); 0.801 with Crenolanib + Pemetrexed (first compound 0.03162 µM). In addition, the relative viability with Crenolanib + Pemetrexed (first compound 0.1 µM) came to 0.719; in the assay with Crenolanib + Pemetrexed (first compound 0.3162 µM) it was 0.942; with Crenolanib + Pemetrexed (first compound 1 µM), 0.832; in the assay with Tivantinib + Phenformin (first compound 0.01 µM) it was 0.419; with Tivantinib + Phenformin (first compound 0.03162 µM) it was 0.357; with Tivantinib + Phenformin (first compound 0.1 µM), 0.392. Moreover, the relative viability in the assay with Tivantinib + Phenformin (first compound 0.3162 µM) is 0.263.
